Measurements: patent publication US20050119240A1, “1-methyl-20-epi-vitamin d derivative” (priority 2000, published 2005)

The compounds below were run against T1, Bovine thymus 1α,25-dihydroxyvitamin D3 receptor (VDR) (Bos taurus, UniProt Q28037). Conditions: relative value with that of 1α,25-dihydroxyvitamin D3 taken as 100; [3H]-1α,25-dihydroxyvitamin D3 0.1 nM, incubation overnight at 4° C.
T1 sequence (Q28037 1-426): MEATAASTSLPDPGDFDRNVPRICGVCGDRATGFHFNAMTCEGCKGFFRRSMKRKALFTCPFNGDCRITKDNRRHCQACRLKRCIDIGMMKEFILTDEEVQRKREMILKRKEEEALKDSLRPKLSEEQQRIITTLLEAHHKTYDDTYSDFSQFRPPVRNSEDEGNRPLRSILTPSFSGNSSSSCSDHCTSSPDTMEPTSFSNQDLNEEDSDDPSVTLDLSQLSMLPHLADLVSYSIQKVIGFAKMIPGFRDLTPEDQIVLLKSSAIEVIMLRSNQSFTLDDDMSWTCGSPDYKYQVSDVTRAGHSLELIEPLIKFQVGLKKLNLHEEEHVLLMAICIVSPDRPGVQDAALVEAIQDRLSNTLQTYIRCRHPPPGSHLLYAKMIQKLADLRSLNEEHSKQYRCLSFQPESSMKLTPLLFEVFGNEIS

With `C=C1/C(=C\C=C2/CCC[C@@]3(C)C2CCC3[C@@H](C)CCCC(C)(C)O)C[C@H](O)C[C@@]1(C)O` (stereo partly drawn) [Compound 11, (5Z,7E)-(1R,3S,20S)-1-Methyl-9,10-seco-5,7,10(19)-cholestatriene-1,3,25-triol] as the compound, how does the VDR binding properties read?
The VDR binding properties was 0.004.

Which VDR binding properties does the source give for `C=C1C(=CC=C2CCCC3(C)C2CCC3C(C)CCCC(C)(C)O)CC(O)CC1(C)O` [Compound 9, (5Z,7E)-(1R,3R,20S)-1-Methyl-9,10-seco-5,7,10(19)-cholestatriene-1,3,25-triol] here?
The VDR binding properties was 0.017.

For `C=C1/C(=C\C=C2/CCC[C@@]3(C)C2CCC3[C@@H](C)CCCC(C)(C)O)C[C@@H](O)C[C@]1(C)O` (stereo partly drawn) [Compound 6, (5Z,7E)-(1S,3R,20S)-1-Methyl-9,10-seco-5,7,10(19)-cholestatriene-1,3,25-triol], which VDR binding properties is on record?
Its VDR binding properties is 1.

Which VDR binding properties does the source give for `C=C1/C(=C\C=C2/CCC[C@]3(C)[C@@H]([C@@H](C)CCCC(C)(C)O)CC[C@@H]23)C[C@H](O)C[C@]1(C)O` [Compound 4, (5Z,7E)-(1S,3S,20S)-1Methyl-9,10-seco-5,7,10(19)-cholestatriene-1,3,25-triol] here?
The VDR binding properties was 1.
